What was measured:
Type in all cases: in vivo
[1] = test system: morningglory (Ipomoea coccinea); assay: Test C postemergence; details: Ipomoea, post-emergence, 336 h, Postemergence, scale 0 to 100, read-out: Plant response rating, Morningglory
Method in brief: (§1)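 Greenhouse test, preemergence on seeded soil or postemergence on 1- to 4-leaf plants. Response is a visual 0-100 rating versus controls, taken 13-15 days after treatment.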

[2] = test system: velvetleaf (Abutilon theophrasti); assay: Test C postemergence; details: Abutilon theophrasti, post-emergence, Postemergence, scale 0 to 100, read-out: Plant response rating, Velvetleaf
Method in brief: as §1

[3] = test system: large (Lg) crabgrass (Digitaria sanguinalis); assay: Test C postemergence; details: Digitaria sanguinalis, post-emergence, 336 h, Postemergence, scale 0 to 100, read-out: Plant response rating, Crabgrass, Large
Method in brief: as §1

[4] = test system: galium (catchweed bedstraw, Galium aparine); assay: Test C postemergence; details: Galium, post-emergence, 336 h, Postemergence, scale 0 to 100, read-out: Plant response rating, Galium
Method in brief: as §1

[5] = test system: winter wheat (Triticum aestivum); assay: Test C postemergence; details: Triticum aestivum, post-emergence, 336 h, Postemergence, scale 0 to 100, read-out: Plant response rating, Wheat
Method in brief: as §1

kochia (Kochia scoparia) = assay: Test C postemergence; details: Bassia scoparia, post-emergence, Postemergence, scale 0 to 100, read-out: Plant response rating, Kochia
Method in brief: as §1

[6] = test system: yellow nutsedge (Cyperus esculentus); assay: Test C preemergence; details: Cyperus, pre-emergence, 336 h, scale 0 to 100, read-out: Plant response rating, Nutsedge, Yellow
Method in brief: as §1

[7] = test system: pigweed (Amaranthus retroflexus); assay: Test C preemergence; details: Amaranthus retroflexus, pre-emergence, 336 h, scale 0 to 100, read-out: Plant response rating, Pigweed
Method in brief: as §1

[8] = test system: morningglory (Ipomoea coccinea); assay: Test C preemergence; details: Ipomoea, pre-emergence, 336 h, scale 0 to 100, read-out: Plant response rating, Morningglory
Method in brief: as §1

[9] = test system: johnsongrass (Sorghum halepense); assay: Test C preemergence; details: Sorghum halepense, pre-emergence, 336 h, scale 0 to 100, read-out: Plant response rating, Johnsongrass
Method in brief: as §1

[10] = test system: oilseed rape (Brassica napus); assay: Test C preemergence; details: Brassica napus, pre-emergence, scale 0 to 100, read-out: Plant response rating, Oilseed Rape
Method in brief: as §1

[11] = test system: velvetleaf (Abutilon theophrasti); assay: Test C preemergence; details: Abutilon theophrasti, pre-emergence, scale 0 to 100, read-out: Plant response rating, Velvetleaf
Method in brief: as §1

[12] = test system: large (Lg) crabgrass (Digitaria sanguinalis); assay: Test C preemergence; details: Digitaria sanguinalis, pre-emergence, 336 h, scale 0 to 100, read-out: Plant response rating, Crabgrass, Large
Method in brief: as §1

[13] = test system: barnyardgrass (Echinochloa crus-galli); assay: Test C preemergence; details: Echinochloa crus-galli, pre-emergence, read-out: Plant response rating, Barnyardgrass
Method in brief: as §1

[14] = test system: ragweed (common ragweed, Ambrosia elatior); assay: Test C preemergence; details: Ambrosia artemisiifolia, pre-emergence, 336 h, scale 0 to 100, read-out: Plant response rating, Ragweed
Method in brief: as §1

[15] = test system: galium (catchweed bedstraw, Galium aparine); assay: Test C preemergence; details: Galium, pre-emergence, 336 h, scale 0 to 100, read-out: Plant response rating, Galium
Method in brief: as §1

soybean (Glycine max) = assay: Test C preemergence; details: Glycine max, pre-emergence, scale 0 to 100, read-out: Plant response rating, Soybean
Method in brief: as §1

[16] = test system: giant foxtail (Setaria faberii); assay: Test C preemergence; details: Setaria faberi, pre-emergence, 336 h, scale 0 to 100, read-out: Plant response rating, Foxtail, Giant
Method in brief: as §1

corn (Zea mays) = assay: Test C preemergence; details: Zea mays, pre-emergence, 336 h, scale 0 to 100
Method in brief: as §1

[17] = test system: lambsquarters (Chenopodium album); assay: Test C preemergence; details: Chenopodium album, pre-emergence, 336 h, scale 0 to 100, read-out: Plant response rating, Lambsquarters
Method in brief: as §1

[18] = test system: winter wheat (Triticum aestivum); assay: Test C preemergence; details: Triticum aestivum, pre-emergence, 336 h, scale 0 to 100, read-out: Plant response rating, Wheat
Method in brief: as §1

[19] = test system: blackgrass (Alopecurus myosuroides); assay: Test C preemergence; details: Alopecurus myosuroides, pre-emergence, 336 h, scale 0 to 100, read-out: Plant response rating, Blackgrass
Method in brief: as §1

SMILES: Fc1cccc(Oc2ncc(Cl)cn2)c1Oc1ncc(C(F)(F)F)cn1 [Compound 43, 5-chloro-2-[5-fluoro-6-[[5-(trifluoromethyl)-2-pyrimidinyl]oxy]phenoxy]pyrimidine]
- pest or weed control at 31 g/ha ([1]; 31 g ai/ha): 85%
- pest or weed control at 62 g/ha ([1]; 62 g ai/ha): 80%
- pest or weed control at 125 g/ha ([1]; 125 g ai/ha): 80%
- pest or weed control at 31 g/ha ([2]; 31 g ai/ha): 55%
- pest or weed control at 62 g/ha ([2]; 62 g ai/ha): 75%
- pest or weed control at 125 g/ha ([2]; 125 g ai/ha): 85%
- pest or weed control at 16 g/ha ([3]; 16 g ai/ha): 5%
- pest or weed control at 31 g/ha ([3]; 31 g ai/ha): 5%
- pest or weed control at 62 g/ha ([3]; 62 g ai/ha): 10%
- pest or weed control at 125 g/ha ([3]; 125 g ai/ha): 40%
- pest or weed control at 16 g/ha ([4]; 16 g ai/ha): 35%
- pest or weed control at 31 g/ha ([4]; 31 g ai/ha): 80%
- pest or weed control at 62 g/ha ([4]; 62 g ai/ha): 85%
- pest or weed control at 125 g/ha ([4]; 125 g ai/ha): 90%
- plant injury at 31 g/ha ([5]; 31 g ai/ha): 0%
- plant injury at 62 g/ha ([5]; 62 g ai/ha): 0%
- plant injury at 125 g/ha ([5]; 125 g ai/ha): 5%
- pest or weed control at 16 g/ha (kochia (Kochia scoparia); 16 g ai/ha): 90%
- pest or weed control at 31 g/ha (kochia (Kochia scoparia); 31 g ai/ha): 95%
- pest or weed control at 62 g/ha (kochia (Kochia scoparia); 62 g ai/ha): 100%
- pest or weed control at 125 g/ha (kochia (Kochia scoparia); 125 g ai/ha): 100%
- pest or weed control at 31 g/ha ([6]; 31 g ai/ha, preemergence): 0%
- pest or weed control at 62 g/ha ([6]; 62 g ai/ha, preemergence): 35%
- pest or weed control at 125 g/ha ([6]; 125 g ai/ha, preemergence): 60%
- pest or weed control at 16 g/ha ([6]; Preemergence, 16 g ai/ha): 100%
- pest or weed control at 31 g/ha ([7]; 31 g ai/ha, preemergence): 100%
- pest or weed control at 62 g/ha ([7]; 62 g ai/ha, preemergence): 100%
- pest or weed control at 125 g/ha ([7]; 125 g ai/ha, preemergence): 100%
- pest or weed control at 16 g/ha ([7]; Preemergence, 16 g ai/ha): 100%
- pest or weed control at 31 g/ha ([8]; 31 g ai/ha, preemergence): 85%
- pest or weed control at 62 g/ha ([8]; 62 g ai/ha, preemergence): 100%
- pest or weed control at 125 g/ha ([8]; 125 g ai/ha, preemergence): 100%
- pest or weed control at 16 g/ha ([8]; Preemergence, 16 g ai/ha): 70%
- pest or weed control at 31 g/ha ([9]; 31 g ai/ha, preemergence): 75%
- pest or weed control at 62 g/ha ([9]; 62 g ai/ha, preemergence): 100%
- pest or weed control at 125 g/ha ([9]; 125 g ai/ha, preemergence): 100%
- pest or weed control at 16 g/ha ([9]; Preemergence, 16 g ai/ha): 20%
- plant injury at 31 g/ha ([10]; 31 g ai/ha, preemergence): 100%
- plant injury at 62 g/ha ([10]; 62 g ai/ha, preemergence): 100%
- plant injury at 125 g/ha ([10]; 125 g ai/ha, preemergence): 100%
- plant injury at 16 g/ha ([10]; Preemergence, 16 g ai/ha): 95%
- pest or weed control at 31 g/ha ([11]; 31 g ai/ha, preemergence): 100%
- pest or weed control at 62 g/ha ([11]; 62 g ai/ha, preemergence): 100%
- pest or weed control at 125 g/ha ([11]; 125 g ai/ha, preemergence): 100%
- pest or weed control at 16 g/ha ([11]; Preemergence, 16 g ai/ha): 100%
- pest or weed control at 31 g/ha ([12]; 31 g ai/ha, preemergence): 100%
- pest or weed control at 62 g/ha ([12]; 62 g ai/ha, preemergence): 100%
- pest or weed control at 125 g/ha ([12]; 125 g ai/ha, preemergence): 100%
- pest or weed control at 16 g/ha ([12]; Preemergence, 16 g ai/ha): 100%
- pest or weed control at 31 g/ha ([13]; 31 g ai/ha, preemergence, scale 0 to 100): 85%
- pest or weed control at 62 g/ha ([13]; 62 g ai/ha, preemergence, scale 0 to 100): 100%
- pest or weed control at 125 g/ha ([13]; 125 g ai/ha, preemergence, scale 0 to 100): 100%
- pest or weed control at 16 g/ha ([13]; Preemergence, 16 g ai/ha, scale 0 to 100 (0 no effect, 100 complete control)): 60%
- pest or weed control at 31 g/ha ([14]; 31 g ai/ha, preemergence): 80%
- pest or weed control at 62 g/ha ([14]; 62 g ai/ha, preemergence): 100%
- pest or weed control at 125 g/ha ([14]; 125 g ai/ha, preemergence): 90%
- pest or weed control at 16 g/ha ([14]; Preemergence, 16 g ai/ha): 35%
- pest or weed control at 31 g/ha ([15]; 31 g ai/ha, preemergence): 95%
- pest or weed control at 62 g/ha ([15]; 62 g ai/ha, preemergence): 100%
- pest or weed control at 125 g/ha ([15]; 125 g ai/ha, preemergence): 100%
- pest or weed control at 16 g/ha ([15]; Preemergence, 16 g ai/ha): 95%
- plant injury at 31 g/ha (soybean (Glycine max); 31 g ai/ha, preemergence): 45%
- plant injury at 62 g/ha (soybean (Glycine max); 62 g ai/ha, preemergence): 75%
- plant injury at 125 g/ha (soybean (Glycine max); 125 g ai/ha, preemergence): 90%
- plant injury at 16 g/ha (soybean (Glycine max); Preemergence, 16 g ai/ha): 30%
- pest or weed control at 31 g/ha ([16]; 31 g ai/ha, preemergence): 100%
- pest or weed control at 62 g/ha ([16]; 62 g ai/ha, preemergence): 100%
- pest or weed control at 125 g/ha ([16]; 125 g ai/ha, preemergence): 100%
- pest or weed control at 16 g/ha ([16]; Preemergence, 16 g ai/ha): 95%
- Corn plant response rating (crop injury, 0 = no effect, 100 = complete kill) at 31 g/ha (corn (Zea mays); 31 g ai/ha, preemergence): 20%
- Corn plant response rating (crop injury, 0 = no effect, 100 = complete kill) at 62 g/ha (corn (Zea mays); 62 g ai/ha, preemergence): 65%
- Corn plant response rating (crop injury, 0 = no effect, 100 = complete kill) at 125 g/ha (corn (Zea mays); 125 g ai/ha, preemergence): 90%
- Corn plant response rating (crop injury, 0 = no effect, 100 = complete kill) at 16 g/ha (corn (Zea mays); Preemergence, 16 g ai/ha): 20%
- pest or weed control at 31 g/ha ([17]; 31 g ai/ha, preemergence): 100%
- pest or weed control at 62 g/ha ([17]; 62 g ai/ha, preemergence): 100%
- pest or weed control at 125 g/ha ([17]; 125 g ai/ha, preemergence): 100%
- pest or weed control at 16 g/ha ([17]; Preemergence, 16 g ai/ha): 100%
- plant injury at 31 g/ha ([18]; 31 g ai/ha, preemergence): 25%
- plant injury at 62 g/ha ([18]; 62 g ai/ha, preemergence): 40%
- plant injury at 125 g/ha ([18]; 125 g ai/ha, preemergence): 90%
- plant injury at 16 g/ha ([18]; Preemergence, 16 g ai/ha): 5%
- pest or weed control at 31 g/ha ([19]; 31 g ai/ha, preemergence): 50%
- pest or weed control at 62 g/ha ([19]; 62 g ai/ha, preemergence): 90%
- pest or weed control at 125 g/ha ([19]; 125 g ai/ha, preemergence): 95%
- pest or weed control at 16 g/ha ([19]; Preemergence, 16 g ai/ha): 40%
